This is an account of results in BindingDB's records for patent US20250340565 (AdoRx Therapeutics, 2025).

SMILES strings stand for the structures.

The experiment has as its target T1, 5'-nucleotidase [27-547] (UniProt P21589).
T1 construct: 27-547
T1 sequence (P21589 whole entry): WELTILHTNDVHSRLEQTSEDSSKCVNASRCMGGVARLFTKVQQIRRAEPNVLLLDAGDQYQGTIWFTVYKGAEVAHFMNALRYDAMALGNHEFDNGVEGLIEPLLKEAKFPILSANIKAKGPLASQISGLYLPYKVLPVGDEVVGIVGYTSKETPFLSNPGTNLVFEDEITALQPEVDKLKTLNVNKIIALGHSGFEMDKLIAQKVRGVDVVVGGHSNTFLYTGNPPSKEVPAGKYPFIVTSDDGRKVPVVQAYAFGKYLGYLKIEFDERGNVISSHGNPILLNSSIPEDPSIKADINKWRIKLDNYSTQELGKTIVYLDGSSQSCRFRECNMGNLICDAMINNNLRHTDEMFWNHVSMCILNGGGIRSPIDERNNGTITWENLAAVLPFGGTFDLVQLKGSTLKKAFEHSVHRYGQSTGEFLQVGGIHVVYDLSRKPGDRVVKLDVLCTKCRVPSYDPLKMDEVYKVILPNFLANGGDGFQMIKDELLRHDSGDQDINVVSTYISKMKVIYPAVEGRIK
The experiment can be described thus: CD73 Inhibition Assay. How it is done: Compound inhibition of human (h)CD73 (amino acids Trp27-Lys547, R&D Systems 5795-EN-500) enzymatic activity was tested via the Malachite Green Phosphate Detection Kit (R&D DY996). Experiments were performed in 20 μL Tris buffer (25 mM Tris pH 7.5, 5 mM MgCl2, 0.002% Tween20), with 250 pM of hCD73. Test compounds of interest were prepared in a threefold serial dilution in DMSO and added to the assay to give the appropriate final concentration, with the assay DMSO concentration being 1%. Compounds were pre-incubated for 20 minutes with hCD73 in a 384 well clear plate (Greiner 781101), followed by the addition of adenosine monophosphate (AMP) to 12.5 μM. The enzymatic reaction was carried out for 20 min at room temperature. 5 μL of Malachite kit reagent A was added to stop the reaction (contains 3M H2SO4) and after 10 min, 5 μL of Malachite kit reagent B was added (Malachite Green). After 30 min, absorbance at 620 nm was read on a BMG Pherastar FSX.

As usually defined, the IC50 is the concentration that gives 50% inhibition. The low end stands for greater potency, the high end for weaker potency.

As to `O=c1[nH]cc(-n2cc3c(N4C[C@@H]5COC[C@H]5C4)ncnc3n2)c(=O)[nH]1` [US20250340565, Example 13.10], the IC50 worked out at 898 nM.
